Measurements from ChEMBL document CHEMBL4665836, “Overcoming β-Lactam resistance in Pseudomonas aeruginosa using non-canonical tobramycin-based antibiotic adjuvants” (2020).
In brackets after ≈: the same amount, converted by molar mass.

Assays:
Type in all cases: functional
Pseudomonas aeruginosa [1] = experiment: Potentiation of ceftazidime-induced antibacterial activity against carbapenem-resistant Pseudomonas aeruginosa 109084 clinical isolate assessed as fold reduction in ceftazidime MIC at 8 uM
Pseudomonas aeruginosa [2] = experiment: Potentiation of ceftazidime-induced antibacterial activity against carbapenem-resistant Pseudomonas aeruginosa 86052 clinical isolate assessed as fold reduction in ceftazidime MIC at 8 uM
Pseudomonas aeruginosa [3] = experiment: Potentiation of aztreonam-induced antibacterial activity against carbapenem-resistant Pseudomonas aeruginosa 86052 clinical isolate assessed as fold reduction in aztreonam MIC at 8 uM
Pseudomonas aeruginosa [4] = experiment: Potentiation of aztreonam-induced antibacterial activity against carbapenem-resistant Pseudomonas aeruginosa 109084 clinical isolate assessed as fold reduction in aztreonam MIC at 8 uM
Pseudomonas aeruginosa [5] = experiment: Potentiation of aztreonam-induced antibacterial activity against carbapenem-resistant Pseudomonas aeruginosa 108590 clinical isolate assessed as fold reduction in aztreonam MIC at 8 uM
Pseudomonas aeruginosa [6] = experiment: Potentiation of aztreonam-induced antibacterial activity against carbapenem-resistant Pseudomonas aeruginosa 107092 clinical isolate assessed as fold reduction in aztreonam MIC at 8 uM
Pseudomonas aeruginosa [7] = experiment: Potentiation of aztreonam-induced antibacterial activity against carbapenem-resistant Pseudomonas aeruginosa 88949 clinical isolate assessed as fold reduction in aztreonam MIC at 8 uM
Pseudomonas aeruginosa [8] = experiment: Potentiation of ceftazidime-induced antibacterial activity against carbapenem-resistant Pseudomonas aeruginosa 108590 clinical isolate assessed as fold reduction in ceftazidime MIC at 8 uM
Pseudomonas aeruginosa [9] = experiment: Potentiation of ceftazidime-induced antibacterial activity against carbapenem-resistant Pseudomonas aeruginosa 88949 clinical isolate assessed as fold reduction in ceftazidime MIC at 8 uM
Pseudomonas aeruginosa [10] = experiment: Potentiation of ceftazidime-induced antibacterial activity against carbapenem-resistant Pseudomonas aeruginosa 107092 clinical isolate assessed as fold reduction in ceftazidime MIC at 8 uM
Pseudomonas aeruginosa [11] = experiment: Antibacterial activity against Pseudomonas aeruginosa PAO750 harboring mexAB-oprM/mexCD-oprJ/mexEF-oprN/mexJK/mexXY/opmH efflux deficient mutant
Pseudomonas aeruginosa [12] = experiment: Antibacterial activity against Pseudomonas aeruginosa PAO200 harboring mexAB-oprM efflux deficient mutant
Pseudomonas aeruginosa [13] = experiment: Potentiation of imipenem-induced antibacterial activity against carbapenem-resistant Pseudomonas aeruginosa 86052 clinical isolate assessed as fold reduction in imipenem MIC at 8 uM
Pseudomonas aeruginosa [14] = experiment: Potentiation of imipenem-induced antibacterial activity against carbapenem-resistant Pseudomonas aeruginosa 107092 clinical isolate assessed as fold reduction in imipenem MIC at 8 uM
Pseudomonas aeruginosa [15] = experiment: Potentiation of imipenem-induced antibacterial activity against carbapenem-resistant Pseudomonas aeruginosa 88949 clinical isolate assessed as fold reduction in imipenem MIC at 8 uM
Pseudomonas aeruginosa [16] = experiment: Potentiation of imipenem-induced antibacterial activity against carbapenem-resistant Pseudomonas aeruginosa 109084 clinical isolate assessed as fold reduction in imipenem MIC at 8 uM
Pseudomonas aeruginosa [17] = experiment: Potentiation of imipenem-induced antibacterial activity against carbapenem-resistant Pseudomonas aeruginosa 108590 clinical isolate assessed as fold reduction in imipenem MIC at 8 uM
Pseudomonas aeruginosa [18] = experiment: Antibacterial activity against wild type Pseudomonas aeruginosa PAO1

NC(=O)[C@@H]1CC[C@@H]2CN1C(=O)N2OS(=O)(=O)O [AVIBACTAM]
fold change (FC) (Pseudomonas aeruginosa [1]): 2 | fold change (FC) (Pseudomonas aeruginosa [2]): 2 | fold change (FC) (Pseudomonas aeruginosa [3]): 2 | fold change (FC) (Pseudomonas aeruginosa [4]): 2 | fold change (FC) (Pseudomonas aeruginosa [5]): 2 | fold change (FC) (Pseudomonas aeruginosa [6]): 2 | fold change (FC) (Pseudomonas aeruginosa [7]): 2 | fold change (FC) (Pseudomonas aeruginosa [8]): 2 | fold change (FC) (Pseudomonas aeruginosa [9]): 2 | fold change (FC) (Pseudomonas aeruginosa [10]): 2

O=C(O)c1cn(C2CC2)c2cc(N3CCNCC3)c(F)cc2c1=O [CIPROFLOXACIN]
MIC (Pseudomonas aeruginosa [11]): 0.0078 µg/mL (≈ 0.0235 µM) | MIC (Pseudomonas aeruginosa [12]): 0.0156 µg/mL (≈ 0.0471 µM)

O.O=C(NC1CCNCC1)[C@@H]1CC[C@@H]2CN1C(=O)N2OS(=O)(=O)O [RELEBACTAM]
fold change (FC) (Pseudomonas aeruginosa [13]): 2 | fold change (FC) (Pseudomonas aeruginosa [14]): 2 | fold change (FC) (Pseudomonas aeruginosa [15]): 2 | fold change (FC) (Pseudomonas aeruginosa [16]): 2 | fold change (FC) (Pseudomonas aeruginosa [17]): 2

NC[C@H]1O[C@H](O[C@H]2[C@H](O)[C@@H](O[C@H]3O[C@H](CO)[C@@H](O)[C@H](N)[C@H]3O)[C@H](N)C[C@@H]2N)[C@H](N)C[C@@H]1O [TOBRAMYCIN]
MIC (Pseudomonas aeruginosa [11]): 1 µg/mL (≈ 2.14 µM) | MIC (Pseudomonas aeruginosa [18]): 1 µg/mL (≈ 2.14 µM) | MIC (Pseudomonas aeruginosa [12]): 1 µg/mL (≈ 2.14 µM)
